Columns and labels:
H2-receptor [1] = molecular target: T1, H2-receptor (Homo sapiens, UniProt P25021); conditions: cited from earlier work
H2-receptor [2] = molecular target: T1, H2-receptor; conditions: cited from earlier work; remark: listed apart in the source
[3] = Experimental: Peripheral blood venous samples were drawn in 10 ml heparinized test tubes before the onset of treatment and weekly thereafter. […] The manufacturer's instructions provided with the kit, dated June, 1989, were followed. Blood histamine levels were measured at the indicated times.
[4] = tested on: herpes simplex virus (HSV) type 2; conditions: animals inoculated intravenously with HSV; cited from earlier work
[5] = prior reports; cited from earlier work
[6] = Effect of rate and duration of histamine administration on side effects and efficacy; conditions: administered over longer than about 30 minutes
[7] = tested on: Acute Myelogenous Leukernia; conditions: IL-2 as the single agent; cited from earlier work

T1 sequence (P25021 whole entry): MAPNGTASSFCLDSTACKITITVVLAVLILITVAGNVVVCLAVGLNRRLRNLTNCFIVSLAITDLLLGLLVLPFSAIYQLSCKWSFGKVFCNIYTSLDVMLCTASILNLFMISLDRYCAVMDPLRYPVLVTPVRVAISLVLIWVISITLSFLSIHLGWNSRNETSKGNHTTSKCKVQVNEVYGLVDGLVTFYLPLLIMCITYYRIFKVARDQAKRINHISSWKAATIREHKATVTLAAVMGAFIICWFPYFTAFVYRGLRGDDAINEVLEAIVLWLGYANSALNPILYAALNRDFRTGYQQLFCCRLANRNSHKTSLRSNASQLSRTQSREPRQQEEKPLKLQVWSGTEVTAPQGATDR

## CN(C)CCCSC(=N)N [dimaprit]
H2-receptor [1]
  effect of histamine on granulocyte mediated suppression of antibody dependent cytotoxicity of NK cells: mimicked
H2-receptor [2]
  NK cell mediated cytotoxicity: capable of augmenting NK cell mediated cytotoxicity

## NCCc1c[nH]cn1 [histamine]
[3]; even after histamine administration was discontinued
  persistence of circulating blood histamine levels: remained elevated for sustained periods of time
[3]; histamine 0.4-0.7 mg s.c. twice daily with IL-2 for 21 days, samples at least 8 hours after last injection, beneficial = at least 0.2 μmole/L
  circulating blood histamine levels following histamine administration: rose to beneficial levels
[4]
  survival time: prolong survival time
[5]
  half life in the blood: five
[6]
  efficacy on prolonged administration: decreased or lack of efficacy

## CNC(=C[N+](=O)[O-])NCCSCc1ccc(CN(C)C)o1 [ranitidine]
H2-receptor [1]
  effect of histamine on granulocyte mediated suppression of antibody dependent cytotoxicity of NK cells: blocked

## IL-2: cytokine synthesized by T cells; human recombinant interleukin-2 (Proleukin, Eurocetus)
[7]
  fraction of AML patients with inversion of remission time: < 10%

From patent publication US6613788B1, “Elevation of circulating blood histamine levels” (Maxim Pharmaceuticals, Inc., priority 1996, dated 2003)
